From patent US20070167452A1, “Therapeutic amide derivatives” (PFIZER, INC., priority 2004, published 2007)

What was measured:
Human HERG = Human HERG (Homo sapiens, UniProt Q12809); experiment: Human Dofetilide Binding Assay
Experimental: Human HERG transfected HEK293S cells were prepared and grown in-house. The collected cells were suspended in 50 mM Tris-HCl (pH 7.4 at 4° C.) and homogenized using a hand held Polytron PT 1200 disruptor set at full power for 20 sec on ice. The homogenates were centrifuged at 48,000×g at 4° C. for 20 min. The pellets were then resuspended, homogenized, and centrifuged once more in the same manner. The final pellets were resuspended in an appropriate volume of 50 mM Tris-HCl, 10 mM KCl, 1 mM MgCl2 (pH 7.4 at 4° C.), homogenized, aliquoted and stored at −80° C. until use. An aliquot of membrane fractions was used for protein concentration determination using BCA protein assay kit (PIERCE) and ARVOsx plate reader (Wallac).
Binding assays were conducted in a total volume of 200 μl in 96-well plates. Twenty μl of test compounds were incubated with 20 μl of [^3H]-dofetilide (Amersham, final 5 nM) and 160 μl of membrane homogenate (25 μg protein) for 60 minutes at room temperature. Nonspecific binding was determined by 10 μM dofetilide at the final concentration. Incubation was terminated by rapid vacuum filtration over 0.5% presoaked GF/B Betaplate filter using Skatron cell harvester with 50 mM Tris-HCl, 10 mM KCl, 1 mM MgCl2, pH 7.4 at 4° C. The filters were dried, put into sample bags and filled with Betaplate Scint. Radioactivity bound to filter was counted with Wallac Betaplate counter.

NR2B receptor = biological target: T1, NR2B receptor (Rattus norvegicus, UniProt P35439+Q00960); experiment: NR2B Binding Assay; details: for IC50: forebrain P2 membranes of male CD rats, 5 nM [3H] NR2B ligand
T1 construct: Membranes were prepared by homogenization of forebrain of male CD rats; from tissue; host or cells: forebrain of male CD rats (P2 membrane)
T1 sequence (Q00960 27-1482, other chains not shown): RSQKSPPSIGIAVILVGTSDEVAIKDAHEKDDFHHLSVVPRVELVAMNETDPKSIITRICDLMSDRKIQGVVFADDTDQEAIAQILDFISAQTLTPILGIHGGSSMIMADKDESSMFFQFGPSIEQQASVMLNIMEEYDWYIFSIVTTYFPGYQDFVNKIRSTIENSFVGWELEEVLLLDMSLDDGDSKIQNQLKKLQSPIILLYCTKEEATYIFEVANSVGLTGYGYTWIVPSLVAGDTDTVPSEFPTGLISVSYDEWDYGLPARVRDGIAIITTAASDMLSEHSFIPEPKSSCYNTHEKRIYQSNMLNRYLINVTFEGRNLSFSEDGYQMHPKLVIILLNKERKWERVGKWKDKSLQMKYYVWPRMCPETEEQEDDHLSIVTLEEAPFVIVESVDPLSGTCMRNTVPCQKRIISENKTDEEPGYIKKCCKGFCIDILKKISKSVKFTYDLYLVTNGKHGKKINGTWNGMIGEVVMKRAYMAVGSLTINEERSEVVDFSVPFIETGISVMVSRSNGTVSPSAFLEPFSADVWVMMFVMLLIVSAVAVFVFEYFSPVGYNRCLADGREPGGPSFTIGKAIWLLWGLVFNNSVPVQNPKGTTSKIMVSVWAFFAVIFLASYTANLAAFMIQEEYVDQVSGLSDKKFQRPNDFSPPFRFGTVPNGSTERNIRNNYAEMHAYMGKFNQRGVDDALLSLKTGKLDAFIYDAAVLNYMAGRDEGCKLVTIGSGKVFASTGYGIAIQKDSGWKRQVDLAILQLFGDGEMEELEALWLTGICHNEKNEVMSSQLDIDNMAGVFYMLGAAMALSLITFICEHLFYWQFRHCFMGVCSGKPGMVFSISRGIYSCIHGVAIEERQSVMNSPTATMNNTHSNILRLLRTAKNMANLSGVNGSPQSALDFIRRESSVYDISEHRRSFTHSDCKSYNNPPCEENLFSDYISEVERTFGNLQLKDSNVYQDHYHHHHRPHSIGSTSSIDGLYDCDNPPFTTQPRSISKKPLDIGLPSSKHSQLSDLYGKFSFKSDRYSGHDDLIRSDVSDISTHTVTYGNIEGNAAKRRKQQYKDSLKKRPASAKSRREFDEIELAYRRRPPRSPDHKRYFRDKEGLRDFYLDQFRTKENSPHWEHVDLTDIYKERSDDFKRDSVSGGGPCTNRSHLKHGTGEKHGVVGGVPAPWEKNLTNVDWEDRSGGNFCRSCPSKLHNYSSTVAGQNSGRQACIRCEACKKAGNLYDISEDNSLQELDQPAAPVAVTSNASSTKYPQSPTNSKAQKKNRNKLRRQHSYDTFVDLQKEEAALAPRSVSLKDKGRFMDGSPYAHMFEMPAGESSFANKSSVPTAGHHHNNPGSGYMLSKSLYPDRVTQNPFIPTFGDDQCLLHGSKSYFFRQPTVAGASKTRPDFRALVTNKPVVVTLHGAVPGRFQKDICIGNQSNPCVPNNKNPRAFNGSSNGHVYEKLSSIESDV
Experimental: The activity of the cycloalkylene amide compounds of the present invention, as NR2B antagonists, is determined by their ability to inhibit the binding of NR2B subunit at its receptor sites employing radioactive ligands.
The NR^2B antagonist activity of the cycloalkylene amide compounds is evaluated by using the standard assay procedure described in, for example, J. Pharmacol., 331, pp 117-126, 1997. This method essentially involves determining the concentration of the individual compound required to reduce the amount of radiolabelled NR2B ligands by 50% at their receptor sites, thereby affording characteristic IC50 values for each compound tested. More specifically, the assay is carried out as follows.
Membranes were prepared by homogenization of forebrain of male CD rats weighing between 170˜190 g by using glass-Teflon homogenizer in 0.32 M sucrose at 4° C. The crude nuclear pellet was removed by centrifugation at 1000×g for 10 min, and the supernatant centrifuged at 17000×g for 25 min. The resulting pellet was resuspended in 5 mM Tris acetate pH 7.4 at 4° C. for 10 min to lyse cellular particles and again centrifuged at 17000×g. The resulting pellet (P2 membrane) was washed twice in Tris acetate, resuspended at 5.5 mg protein/ml and stored at −20° C. until use. All the manipulation was done on ice, and stock solution and equipment were kept on ice at all time.
For the saturation assay, receptor saturation was determined by incubating [^3H]-1-[(1S*,2S*)-2-hydroxy-2-(4-hydroxyphenyl)-1-methylethyl]-4-phenylpiperidin-4-ol and 50 μg protein of P2 membrane for 60 minutes at room temperature in a final 100 μl of incubation buffer (50 mM Tris HCl, pH7.4). Total and non-specific bindings (in the presence of 10 μM of unlabeled 1-[(1S*,2S*)-2-hydroxy-2-(4-hydroxyphenyl)-1-methylethyl]-4-phenylpiperidin-4-ol) were determined in a range of [^3H]-1-[(1S*,2S*)-2-hydroxy-2-(4-hydroxyphenyl)-1-methylethyl]-4-phenylpiperidin-4-ol concentrations (0.625 nM to 60 nM).
For the competition assay, test compounds were incubated in duplicate with 5 nM [^3H]-1-[(1S*,2S*)-2-hydroxy-2-(4-hydroxyphenyl)-1-methylethyl]-4-phenylpiperidin-4-ol and 50 μg protein of P2 membrane for 60 minutes at room temperature in a final 100 μl of 50 mM Tris HCl buffer (pH7.4). Nonspecific binding was determined by 10 μM of unlabeled 1-[(1S*,2S*)-2-hydroxy-2-(4-hydroxyphenyl)-1-methylethyl]-4-phenylpiperidin-4-ol (25 μl). The saturation derived KD gained in saturation assay was used for all Ki calculations.
All incubations were terminated by rapid vacuum filtration over 0.2% polyethyleneimine soaked Whatman GF/B glass fibre filter paper using a SKATRON cell harvester followed by three washes with ice-cold filtration buffer (5 mM Tris HCl, pH 7.4.). Receptor-bound radioactivity was quantified by liquid scintillation counting using Packard LS counter. Competition assays were performed by counting Wallac GF/B filters on Betaplate scintillation counter (Wallac).

Chain of Human HERG (Q12809 whole entry): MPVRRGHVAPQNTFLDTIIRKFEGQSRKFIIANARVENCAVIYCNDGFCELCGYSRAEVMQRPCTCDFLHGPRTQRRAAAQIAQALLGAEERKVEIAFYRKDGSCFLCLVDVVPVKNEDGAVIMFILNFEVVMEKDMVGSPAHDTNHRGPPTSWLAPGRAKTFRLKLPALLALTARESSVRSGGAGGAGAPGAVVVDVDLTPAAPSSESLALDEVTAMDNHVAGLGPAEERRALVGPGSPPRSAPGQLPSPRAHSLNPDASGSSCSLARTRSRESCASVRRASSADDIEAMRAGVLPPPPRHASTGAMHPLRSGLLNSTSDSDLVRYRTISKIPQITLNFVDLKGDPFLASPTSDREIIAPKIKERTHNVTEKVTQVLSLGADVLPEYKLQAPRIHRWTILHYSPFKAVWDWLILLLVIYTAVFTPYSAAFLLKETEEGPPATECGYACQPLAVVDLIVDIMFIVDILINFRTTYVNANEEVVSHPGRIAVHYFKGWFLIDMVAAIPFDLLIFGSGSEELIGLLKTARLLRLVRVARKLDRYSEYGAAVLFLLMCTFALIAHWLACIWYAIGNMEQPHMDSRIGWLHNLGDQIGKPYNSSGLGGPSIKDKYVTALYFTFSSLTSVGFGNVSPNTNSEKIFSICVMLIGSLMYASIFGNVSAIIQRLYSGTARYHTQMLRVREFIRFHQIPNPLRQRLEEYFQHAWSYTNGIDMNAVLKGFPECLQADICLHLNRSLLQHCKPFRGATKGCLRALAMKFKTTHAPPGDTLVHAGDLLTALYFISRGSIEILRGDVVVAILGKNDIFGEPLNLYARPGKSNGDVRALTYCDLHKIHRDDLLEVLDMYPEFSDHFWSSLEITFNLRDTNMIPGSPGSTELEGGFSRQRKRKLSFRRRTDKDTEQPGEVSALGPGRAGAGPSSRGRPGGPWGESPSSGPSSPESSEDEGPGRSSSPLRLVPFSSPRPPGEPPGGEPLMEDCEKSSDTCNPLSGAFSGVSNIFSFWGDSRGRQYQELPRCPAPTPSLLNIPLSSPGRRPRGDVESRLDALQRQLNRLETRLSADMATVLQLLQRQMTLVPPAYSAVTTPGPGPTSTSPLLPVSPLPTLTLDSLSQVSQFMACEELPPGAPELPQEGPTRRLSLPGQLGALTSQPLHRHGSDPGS

| melting point | IC50 (NR2B receptor) | Ki (NR2B receptor; competition assay, rat forebrain P2 membranes, read-out: Ki value, binding affinity for the NR2B receptor) | SMILES | IC50 (Human HERG) |
| --- | --- | --- | --- | --- |
| 175.1 °C | 30.2 nM | – | O=C(NC[C@]1(O)CC[C@H](CCOc2ccccc2F)CC1)c1cn[nH]c1 [Example 56, N-({trans-4-[2-(2-Fluorophenoxy)ethyl]-1-hydroxycyclohexyl}methyl)-1H-pyrazole-4-carboxamide] | > 100 µM |
| 174.3 °C | 11 nM | – | O=C(NC[C@]1(O)CC[C@H](COCc2ccccc2F)CC1)c1ccc(O)cc1 [Example 22, N-[(trans-4-{[(2-Fluorobenzyl)oxy]methyl}-1-hydroxycyclohexyl)methyl]-4-hydroxybenzamide] | > 100 µM |
| 189.1 °C | 23.4 nM | – | Cc1ccccc1OC[C@H]1CC[C@@](O)(CNC(=O)c2ccc(O)cc2)CC1 [Example 17, 4-Hydroxy-N-({trans-1-hydroxy-4-[(2-methylphenoxy)methyl]cyclohexyl}methyl)benzamide] | > 100 µM |
| 150.1 °C | 15.4 nM | – | O=C(NC[C@H]1CC[C@@H](COc2ccccc2)CC1)c1cn[nH]c1 [Example 73, N-{[cis-4-(Phenoxymethyl)cyclohexyl]methyl}-1H-pyrazole-4-carboxamide] | > 30 µM |
| 167.6 °C | 21.8 nM | – | O=C(NC[C@]1(O)CC[C@H](COCc2ccc(F)cc2)CC1)c1ccc(O)cc1 [Example 24, N-[(trans-4-{[(4-Fluorobenzyl)oxy]methyl}-1-hydroxycyclohexyl)methyl]-4-hydroxybenzamide] | 97 µM |
| 102.4 °C | 30 nM | – | O=C(NC[C@]1(O)CC[C@H](COc2cc(F)cc(F)c2)CC1)c1ccc(O)cc1 [Example 13, N-({trans-4-[(3,5-Difluorophenoxy)methyl]-1-hydroxycyclohexyl}methyl)-4-hydroxybenzamide] | 62.6 µM |
| 162.5 °C | 18.2 nM | – | O=C(NC[C@]1(O)CC[C@H](COCc2ccccc2)CC1)c1ccc(O)c(F)c1 [Example 60, N-({trans-4-[(Benzyloxy)methyl]-1-hydroxycyclohexyl}methyl)-3-fluoro-4-hydoxybenzamide] | > 100 µM |
| 186 °C | 12 nM | – | O=C(NC[C@]1(O)CC[C@H](COc2cccc(F)c2)CC1)c1ccc(O)cc1 [Example 10, N-({trans-4-[(3-Fluorophenoxy)methyl]-1-hydroxycyclohexyl}methyl)-4-hydroxybenzamide] | 25.8 µM |
| 162.9 °C | 25.5 nM | – | O=C(NC[C@]1(O)CC[C@H](OCc2ccccc2F)CC1)c1ccc(O)cc1 [Example 48, N-({trans-4-[(2-Fluorobenzyl)oxy]-1-hydroxycyclohexyl}methyl)-4-hydroxybenzamide] | > 100 µM |
| 176.4 °C | 7.5 nM | – | O=C(NC[C@]1(O)CC[C@H](COc2ccc(F)cc2)CC1)c1ccc(O)cc1 [Example 9, N-({trans-4-[(4-Fluorophenoxy)methyl]-1-hydroxcyclohexyl}methyl)-4-hydroxybenzamide] | 26.3 µM |
| 165.7 °C | 11.4 nM | – | O=C(NC[C@]1(O)CC[C@H](COCc2ccccc2)CC1)c1ccc(O)cc1 [Example 21, N-({trans-4-[(Benzyloxy)methyl]-1-hydroxycyclohexyl}methyl)-4-hydroxybenzamide] | > 100 µM |
| 196.2 °C | 16.9 nM | – | Cc1ccc(OC[C@H]2CC[C@@](O)(CNC(=O)c3ccc(O)cc3)CC2)nc1 [Example 67, 4-Hydroxy-N-[(trans-1-hydroxy-4-{[(5-methylpyridin-2-yl)oxy]methyl}cyclohexyl)methyl]benzamide] | > 30 µM |
| 183.5 °C | 9.1 nM | – | O=C(NC[C@]1(O)CC[C@H](COc2ccccc2)CC1)c1ccc(O)c(F)c1 [Example 62, 3-Fluoro-4-hydroxy-N-{[trans-1-hydroxy-4-(phenoxymethyl)cyclohexyl]methyl}benzamide] | > 30 µM |
| 164.9 °C | 21 nM | – | O=C(NC[C@]1(O)CC[C@H](COc2cccc(Cl)c2)CC1)c1ccc(O)cc1 [Example 15, N-({trans-4-[(3-Chlorophenoxy)methyl]-1-hydroxycyclohexyl}methyl)-4-hydroxybenzamide] | 20.7 µM |
| 208.2 °C | 19.8 nM | – | O=C(NC[C@]1(O)CC[C@H](COc2ccc(Cl)cc2)CC1)c1ccc(O)cc1 [Example 16, N-({trans-4-[(4-Chlorophenoxy)methyl]-1-hydroxycyclohexyl}methyl)-4-hydroxybenzamide] | > 100 µM |
| 164 °C | 6.2 nM | – | O=C(NC[C@]1(O)CC[C@H](CCOc2ccccc2)CC1)c1ccc(O)c(F)c1 [Example 63, 3-Fluoro-4-hydroxy-N-{[trans-1-hydroxy-4-(2-phenoxyethyl)cyclohexyl]methyl}benzamide] | > 30 µM |
| 167.6 °C | 28.6 nM | – | O=C(NC[C@]1(O)CC[C@H](COCc2cccc(F)c2)CC1)c1ccc(O)cc1 [Example 23, N-[(trans-4-{[(3-Fluorobenzyl)oxy]methyl}-1-hydroxycyclohexyl)methyl]-4-hydroxybenzamide] | > 100 µM |
| 155.9 °C | 26.5 nM | – | O=C(NC[C@]1(O)CC[C@H](COCc2ccc(F)cc2)CC1)c1ccc(O)c(F)c1 [Example 64, 3-Fluoro-N-[(trans-4-{[(4-fluorobenzyl)oxy]methyl}-1-hydroxycyclohexyl)methyl]-4-hydroxybenzamide] | > 100 µM |
| 201.4 °C | 15.2 nM | – | Cc1cccc(OC[C@H]2CC[C@@](O)(CNC(=O)c3ccc(O)cc3)CC2)c1 [Example 18, 4-Hydroxy-N-({trans-1-hydroxy-4-[(3-methylphenoxy)methyl]cyclohexyl}methyl)benzamide] | > 100 µM |
| 203.1 °C | 7.7 nM | – | Cc1ccc(OC[C@H]2CC[C@@](O)(CNC(=O)c3ccc(O)cc3)CC2)cc1 [Example 19, 4-Hydroxy-N-({trans-1-hydroxy-4-[(4-methylphenoxy)methyl]cyclohexyl}methyl)benzamide] | > 100 µM |
| 181.6 °C | 12.6 nM | – | O=C(NC[C@]1(O)CC[C@H](COc2ccc(F)cc2)CC1)c1ccc(O)c(F)c1 [Example 66, 3-Fluoro-N-({trans-4-[(4-fluorophenoxy)methyl]-1-hydroxycyclohexyl}methyl)-4-hydroxybenzamide] | > 100 µM |
| 185 °C | 8.5 nM | 6.2 nM | O=C(NC[C@]1(O)CC[C@H](COc2ccccc2F)CC1)c1ccc(O)cc1 [Example 11, N-({trans-4-[(2-Fluorophenoxy)methyl]-1-hydroxycyclohexyl}methyl)-4-hydroxybenzamide] | > 100 µM |
| 168.1 °C | 14.7 nM | – | O=C(NC[C@]1(O)CC[C@@H](Oc2ccc(Cl)cc2)CC1)c1ccc(O)c(F)c1 [Example 34, N-{[cis-4-(4-Chlorophenoxy)-1-hydroxycyclohexyl]methyl}-3-fluoro-4-hydroxybenzamide] | > 30 µM |
| – | 9 nM | – | O=C(NC[C@H]1CC[C@@H](COc2ccccn2)CC1)c1ccc(O)c(F)c1 [Example 89, 3-Fluoro-4-hydroxy-N-({cis-4-[(pyridin-2-yloxy)methyl]cyclohexyl}methyl)benzamide] | > 100 µM |
| – | 4 nM | – | O=C(NC[C@H]1CC[C@@H](OCCOc2ccc(F)cc2)CC1)c1ccc(O)nc1 [Example 95] | > 100 µM |
